Data as given in ChEMBL document CHEMBL1127709, “The rational development of small molecule tachykinin NK3 receptor selective antagonists - the utilisation of a dipeptide chemical library in drug design” (Bioorg Med Chem Lett, 1994).

Key:
Substance-K receptor = molecular target: T1, Substance-K receptor (Mesocricetus auratus, UniProt P51144); assay: Binding affinity for NK2 receptor binding sites in membranes prepared from hamster urinary bladder by using [125I]NKA as radioligand
T1 sequence (P51144 whole entry): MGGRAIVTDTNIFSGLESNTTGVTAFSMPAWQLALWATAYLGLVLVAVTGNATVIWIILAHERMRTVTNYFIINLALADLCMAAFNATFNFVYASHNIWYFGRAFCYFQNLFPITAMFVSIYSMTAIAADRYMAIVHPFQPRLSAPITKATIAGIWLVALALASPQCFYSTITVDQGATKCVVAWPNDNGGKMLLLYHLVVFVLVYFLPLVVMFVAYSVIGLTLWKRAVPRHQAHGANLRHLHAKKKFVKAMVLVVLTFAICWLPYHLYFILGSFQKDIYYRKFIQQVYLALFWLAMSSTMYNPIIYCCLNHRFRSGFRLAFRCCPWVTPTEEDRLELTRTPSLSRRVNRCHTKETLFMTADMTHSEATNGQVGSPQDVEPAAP

Cavia porcellus [1] = organism: Cavia porcellus; assay: In vitro inhibition of Isometric contractions from longitudinal muscle myenteric plexus preparations with responses to the NK3 receptor selective agonist senktide; format: functional
Cavia porcellus [2] = organism: Cavia porcellus; assay: In vitro inhibition of senktide-induced increases in spontaneous firing of guinea pig habenula neurones; format: functional
Substance-P receptor = Substance-P receptor (Homo sapiens, UniProt P25103); assay: Binding affinity for NK1 receptor binding sites in human lymphoma IM9 cells by using [125I]-Bolton-Hunter substance P as radioligand; format: cell-based, IM-9
Neuromedin-K receptor [3] = molecular target: T2, Neuromedin-K receptor (Cavia porcellus, UniProt P30098); assay: Binding affinity for NK3 receptor binding sites in guinea pig cortical membranes by using [125I][MePhe7]-NKB as radioligand; format: cell membranes
T2 sequence (P30098 whole entry): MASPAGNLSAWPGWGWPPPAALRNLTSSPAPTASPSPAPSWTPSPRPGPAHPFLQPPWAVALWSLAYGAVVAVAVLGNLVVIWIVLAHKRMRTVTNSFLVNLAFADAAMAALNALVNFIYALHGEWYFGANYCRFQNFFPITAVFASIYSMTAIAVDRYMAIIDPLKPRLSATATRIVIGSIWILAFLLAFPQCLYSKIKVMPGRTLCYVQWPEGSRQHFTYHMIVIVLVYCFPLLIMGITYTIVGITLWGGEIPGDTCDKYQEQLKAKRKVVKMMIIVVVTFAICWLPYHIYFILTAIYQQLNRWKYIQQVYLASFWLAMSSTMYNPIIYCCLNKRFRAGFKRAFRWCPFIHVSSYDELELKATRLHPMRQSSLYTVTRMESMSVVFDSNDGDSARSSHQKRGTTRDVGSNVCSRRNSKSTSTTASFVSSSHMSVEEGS

CHO = assay: In vitro inhibition of senktide-evoked increases in intracellular calcium levels in CHO cells using the fluorescent indicator Fura2; format: functional, Cricetulus griseus
Neuromedin-K receptor [4] = molecular target: T3, Neuromedin-K receptor (Homo sapiens, UniProt P29371); assay: Displacement of [125I][MePhe]-NKB from human NK3 receptor expressed in CHO cells; format: cell-based
T3 sequence (P29371 whole entry): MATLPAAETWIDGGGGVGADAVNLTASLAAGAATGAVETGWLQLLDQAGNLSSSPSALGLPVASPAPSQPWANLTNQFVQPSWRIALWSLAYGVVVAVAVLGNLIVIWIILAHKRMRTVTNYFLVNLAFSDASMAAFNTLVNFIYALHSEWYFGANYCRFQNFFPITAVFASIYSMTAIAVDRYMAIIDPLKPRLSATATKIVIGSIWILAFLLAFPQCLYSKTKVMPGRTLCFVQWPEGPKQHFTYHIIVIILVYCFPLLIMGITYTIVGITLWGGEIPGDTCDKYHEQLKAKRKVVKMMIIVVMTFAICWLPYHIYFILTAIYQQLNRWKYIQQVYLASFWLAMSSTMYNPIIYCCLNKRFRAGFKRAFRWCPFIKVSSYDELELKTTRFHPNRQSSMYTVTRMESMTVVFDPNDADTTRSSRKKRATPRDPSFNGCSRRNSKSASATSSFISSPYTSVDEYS

Chain of Substance-P receptor (P25103 whole entry): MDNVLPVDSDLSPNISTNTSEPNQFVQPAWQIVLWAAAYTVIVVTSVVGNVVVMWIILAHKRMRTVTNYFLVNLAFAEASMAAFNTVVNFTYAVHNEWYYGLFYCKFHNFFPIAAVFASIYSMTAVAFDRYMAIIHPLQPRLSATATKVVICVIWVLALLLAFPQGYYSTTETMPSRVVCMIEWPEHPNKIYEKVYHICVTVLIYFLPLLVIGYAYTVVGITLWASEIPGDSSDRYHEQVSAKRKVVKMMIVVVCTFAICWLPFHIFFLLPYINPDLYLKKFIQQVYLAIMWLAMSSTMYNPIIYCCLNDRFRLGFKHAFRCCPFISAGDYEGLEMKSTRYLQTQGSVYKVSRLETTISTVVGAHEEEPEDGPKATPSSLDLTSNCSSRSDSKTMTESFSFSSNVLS

## CC(C)(C)OC(=O)N[C@@](C)(Cc1ccccc1)C(=O)N[C@H](Cc1ccccc1)C(=O)NCCCCCCCCC(N)=O
Substance-K receptor
  IC50: 5.02 µM
Cavia porcellus [1]
  Ke: 13 nM
Cavia porcellus [2]
  Ke: 25 nM
Substance-P receptor
  IC50: 10 µM
Neuromedin-K receptor [3]
  IC50: 15 nM
CHO
  Ke: 15 nM

## CC(C)(C)OC(=O)N[C@@](C)(Cc1ccccc1)C(=O)N[C@H](Cc1ccccc1)C(=O)NCCCCCCCCO
Substance-P receptor
  IC50: 10 µM

## CC(C)(C)OC(=O)N[C@@H](Cc1ccccc1)C(=O)N[C@](C)(Cc1ccccc1)C(=O)NCCCCCCCNC(N)=O
CHO
  Ke: 7 nM

## COCCCCCCCCNC(=O)C(Cc1ccccc1)NC(=O)[C@](C)(Cc1ccccc1)NC(=O)OC(C)(C)C (some centres undefined)
Neuromedin-K receptor [4]
  IC50: 102 nM
